Measurements: ChEMBL document CHEMBL4689842, “EUbOPEN Chemogenomics Library wave 1” (2021)

Assays:
Format in all cases: toxicity, cell-based
U2OS = test: Incucyte cell viability with U2OS; conditions: human, 10 µM, compound concentration 10 uM
Fibroblast = test: Incucyte cell viability with human fibroblast; conditions: 10 µM, compound concentration 10 uM
HEK-293T = test: Incucyte cell viability with HEK293T; conditions: human, 10 µM, compound concentration 10 uM
[1] = 0 h, replicate number 1, timepoint 0 hours
[2] = 6 h, replicate number 2, timepoint 6 hours
[3] = 12 h, replicate number 1, timepoint 12 hours
[4] = 18 h, replicate number 1, timepoint 18 hours
[5] = 24 h, replicate number 1, timepoint 24 hours
[6] = 6 h, replicate number 1, timepoint 6 hours
[7] = 12 h, replicate number 2, timepoint 12 hours
[8] = 18 h, replicate number 2, timepoint 18 hours
[9] = 24 h, replicate number 2, timepoint 24 hours
[10] = 0 h, replicate number 2, timepoint 0 hours
Also: filed as whole numbers so only -1 and 0 and 1 occur.

COC1CCN(c2cccc(-c3cc(NC(C)=O)nc(-n4nc(C)cc4C)n3)n2)CC1
Growth Rate (U2OS; [1]): 0
Growth Rate (U2OS; [2]): 0
Growth Rate (U2OS; [3]): 0
Growth Rate (U2OS; [4]): 0
Growth Rate (U2OS; [5]): 0
Growth Rate (Fibroblast; [1]): 0
Growth Rate (Fibroblast; [6]): 1
Growth Rate (Fibroblast; [2]): 0
Growth Rate (Fibroblast; [3]): 1
Growth Rate (Fibroblast; [7]): 0
Growth Rate (Fibroblast; [4]): 1
Growth Rate (Fibroblast; [8]): 0
Growth Rate (Fibroblast; [5]): 0
Growth Rate (HEK-293T; [1]): 0
Growth Rate (HEK-293T; [6]): 0
Growth Rate (HEK-293T; [3]): 0
Growth Rate (HEK-293T; [4]): 0
Growth Rate (HEK-293T; [5]): 0

CS(=O)(=O)NCC[C@H](NC(=O)c1cncc2c1cnn2-c1ccc(F)cc1)c1ccnc(S(C)(=O)=O)c1 [BI 9307]
Growth Rate (U2OS; [1]): 0
Growth Rate (U2OS; [3]): 1
Growth Rate (U2OS; [4]): 1
Growth Rate (U2OS; [5]): 1
Growth Rate (Fibroblast; [1]): 0
Growth Rate (Fibroblast; [2]): 0
Growth Rate (Fibroblast; [7]): 0
Growth Rate (Fibroblast; [8]): 1
Growth Rate (Fibroblast; [9]): 0
Growth Rate (HEK-293T; [1]): 0
Growth Rate (HEK-293T; [6]): 1
Growth Rate (HEK-293T; [3]): 1
Growth Rate (HEK-293T; [4]): 1
Growth Rate (HEK-293T; [5]): 1

Cc1nc(NC(=O)N2CCC[C@H]2C(N)=O)sc1-c1ccnc(C(C)(C)C(F)(F)F)c1 [ALPELISIB]
Growth Rate (U2OS; [1]): 1
Growth Rate (U2OS; [10]): 0
Growth Rate (U2OS; [6]): 1
Growth Rate (U2OS; [3]): 1
Growth Rate (U2OS; [4]): 0
Growth Rate (U2OS; [8]): 1
Growth Rate (U2OS; [5]): 0
Growth Rate (U2OS; [9]): 1
Growth Rate (Fibroblast; [1]): 1
Growth Rate (Fibroblast; [10]): 0
Growth Rate (Fibroblast; [2]): 1
Growth Rate (Fibroblast; [3]): 1
Growth Rate (Fibroblast; [7]): 0
Growth Rate (Fibroblast; [4]): 1
Growth Rate (Fibroblast; [8]): 0
Growth Rate (Fibroblast; [5]): 1
Growth Rate (Fibroblast; [9]): 0
Growth Rate (HEK-293T; [6]): 0
Growth Rate (HEK-293T; [7]): 0
Growth Rate (HEK-293T; [4]): 1
Growth Rate (HEK-293T; [5]): 1

CNC(=O)c1ccccc1Nc1cc(Nc2ccc(N3CCOCC3)cc2OC)ncc1C(F)(F)F [VS-4718]
Growth Rate (U2OS; [1]): 1
Growth Rate (U2OS; [10]): 0
Growth Rate (U2OS; [6]): 0
Growth Rate (U2OS; [3]): 0
Growth Rate (U2OS; [4]): 0
Growth Rate (U2OS; [5]): 0
Growth Rate (Fibroblast; [1]): 0
Growth Rate (Fibroblast; [4]): 1
Growth Rate (Fibroblast; [5]): 0
Growth Rate (Fibroblast; [9]): 1
Growth Rate (HEK-293T; [6]): 0
Growth Rate (HEK-293T; [3]): 0
Growth Rate (HEK-293T; [4]): 0
Growth Rate (HEK-293T; [5]): 0

COc1cc(N2CCC(N3CCN(C)CC3)CC2)ccc1Nc1ncc(Cl)c(Nc2ccccc2P(C)(C)=O)n1 [BRIGATINIB]
Growth Rate (U2OS; [1]): 0
Growth Rate (U2OS; [6]): 0
Growth Rate (U2OS; [3]): 0
Growth Rate (U2OS; [7]): 1
Growth Rate (U2OS; [4]): 0
Growth Rate (U2OS; [5]): 0
Growth Rate (Fibroblast; [1]): 1
Growth Rate (Fibroblast; [6]): 0
Growth Rate (Fibroblast; [3]): 0
Growth Rate (Fibroblast; [4]): 0
Growth Rate (Fibroblast; [5]): 0
Growth Rate (HEK-293T; [6]): 0
Growth Rate (HEK-293T; [3]): 0
Growth Rate (HEK-293T; [4]): 1
Growth Rate (HEK-293T; [5]): 1
Growth Rate (HEK-293T; [9]): 0

CCCc1c(OCCCOc2ccc(OCC(=O)O)cc2)ccc(C(C)=O)c1O
Growth Rate (U2OS; [1]): 0
Growth Rate (U2OS; [10]): 1
Growth Rate (U2OS; [2]): 1
Growth Rate (U2OS; [3]): 0
Growth Rate (U2OS; [7]): 1
Growth Rate (U2OS; [4]): 1
Growth Rate (U2OS; [5]): 0
Growth Rate (U2OS; [9]): 1
Growth Rate (Fibroblast; [1]): 0
Growth Rate (Fibroblast; [10]): 1
Growth Rate (Fibroblast; [6]): 1
Growth Rate (Fibroblast; [2]): 0
Growth Rate (Fibroblast; [3]): 1
Growth Rate (Fibroblast; [4]): 1
Growth Rate (Fibroblast; [5]): 1
Growth Rate (HEK-293T; [1]): 1
Growth Rate (HEK-293T; [10]): 0
Growth Rate (HEK-293T; [6]): 1
Growth Rate (HEK-293T; [2]): 0
Growth Rate (HEK-293T; [3]): 1
Growth Rate (HEK-293T; [4]): 1
Growth Rate (HEK-293T; [5]): 1

CC(C)(C(=O)O)c1ccc(C(O)CCCN2CCC(C(O)(c3ccccc3)c3ccccc3)CC2)cc1.Cl (configuration not stated) [FEXOFENADINE HYDROCHLORIDE]
Growth Rate (U2OS; [10]): 0
Growth Rate (U2OS; [2]): 0
Growth Rate (U2OS; [3]): 1
Growth Rate (U2OS; [4]): 1
Growth Rate (U2OS; [8]): 0
Growth Rate (U2OS; [5]): 1
Growth Rate (U2OS; [9]): 0
Growth Rate (Fibroblast; [1]): 0
Growth Rate (Fibroblast; [10]): 1
Growth Rate (Fibroblast; [6]): 0
Growth Rate (Fibroblast; [3]): 0
Growth Rate (Fibroblast; [7]): 1
Growth Rate (Fibroblast; [4]): 0
Growth Rate (Fibroblast; [8]): 1
Growth Rate (Fibroblast; [5]): 0
Growth Rate (Fibroblast; [9]): 1
Growth Rate (HEK-293T; [1]): 1
Growth Rate (HEK-293T; [10]): 0
Growth Rate (HEK-293T; [6]): 1
Growth Rate (HEK-293T; [3]): 1
Growth Rate (HEK-293T; [4]): 1
Growth Rate (HEK-293T; [5]): 1

c1ccc(Nc2nc3c(s2)CCCc2[nH]ncc2-3)nc1
Growth Rate (U2OS; [10]): 0
Growth Rate (U2OS; [6]): 1
Growth Rate (U2OS; [2]): 0
Growth Rate (U2OS; [3]): 1
Growth Rate (U2OS; [4]): 0
Growth Rate (U2OS; [8]): 1
Growth Rate (U2OS; [5]): 0
Growth Rate (Fibroblast; [6]): 0
Growth Rate (Fibroblast; [3]): 1
Growth Rate (Fibroblast; [4]): 1
Growth Rate (Fibroblast; [5]): 0
Growth Rate (HEK-293T; [1]): 1
Growth Rate (HEK-293T; [10]): 0
Growth Rate (HEK-293T; [6]): 0
Growth Rate (HEK-293T; [3]): 0
Growth Rate (HEK-293T; [4]): 0
Growth Rate (HEK-293T; [8]): 1
Growth Rate (HEK-293T; [5]): 0
Growth Rate (HEK-293T; [9]): 1

CN(C)[C@H]1CCN(c2cc(-c3ccccc3)nc3ccnn23)C1 [(S)-ZINC-3573]
Growth Rate (U2OS; [6]): 0
Growth Rate (U2OS; [3]): 0
Growth Rate (U2OS; [4]): 0
Growth Rate (U2OS; [8]): 1
Growth Rate (U2OS; [5]): 0
Growth Rate (U2OS; [9]): 1
Growth Rate (Fibroblast; [1]): 0
Growth Rate (Fibroblast; [10]): 1
Growth Rate (Fibroblast; [6]): 0
Growth Rate (Fibroblast; [3]): 0
Growth Rate (Fibroblast; [4]): 0
Growth Rate (Fibroblast; [5]): 1
Growth Rate (HEK-293T; [1]): 1
Growth Rate (HEK-293T; [10]): 0
Growth Rate (HEK-293T; [6]): 0
Growth Rate (HEK-293T; [3]): 0
Growth Rate (HEK-293T; [4]): 0
Growth Rate (HEK-293T; [5]): 0

CC1(C)C(=O)C(C)(C)c2cc(C(=O)Nc3ccc(C(=O)O)cc3)ccc21
Growth Rate (U2OS; [1]): 0
Growth Rate (U2OS; [2]): 1
Growth Rate (U2OS; [3]): 0
Growth Rate (U2OS; [7]): 1
Growth Rate (U2OS; [4]): 1
Growth Rate (U2OS; [5]): 1
Growth Rate (Fibroblast; [1]): 0
Growth Rate (Fibroblast; [10]): 1
Growth Rate (Fibroblast; [6]): 0
Growth Rate (Fibroblast; [3]): 0
Growth Rate (Fibroblast; [4]): 0
Growth Rate (Fibroblast; [8]): 1
Growth Rate (Fibroblast; [5]): 0
Growth Rate (HEK-293T; [1]): 0
Growth Rate (HEK-293T; [2]): 1
Growth Rate (HEK-293T; [3]): 1
Growth Rate (HEK-293T; [4]): 1
Growth Rate (HEK-293T; [5]): 1
